In patent publication US12281329B2, “Compositions and methods for immune cell modulation in adoptive immunotherapies” (Fate Therapeutics, Inc., priority 2016, dated 2025):

Tests used:
K562 cells = assay: NK cell cytotoxicity assay, K562 target cells; type: cell-based; details: 4 hours; NK cells overnight 10 ng/mL IL-15 only or 7 day IL-15 + 5 μM CHIR99021
Method: (§1) NK Cell Cytotoxicity Assay: Cytotoxicity was determined using a flow cytometry based method based on a previously published method (Kim, et al. J Immunol Methods. 2007 Aug. 31; 325(1-2): 51-66). NK cells were co-cultured with e450-proliferation dye-labelled targets for 4 hours. CellEvent™ Caspase-3/7 Green Flow Cytometry Assay Kit (Lifer Technologies) was used to assay for cell death among target cells, and samples were read on a BD LSRFortessa cytometer. Killing of SKOV-3 targets was quantified using the Incucyte Zoom instrument. SKOV-3 cells were transiently transduced with NucLight-Red BacMam reagent (Essen Biosciences) and co-cultured with the indicated NK cell populations for 74 hours, with images taken on two hour intervals. Caspase 3/7 activity was monitored to indicate target cells undergoing apoptosis using the CellEvent™ Caspase-3/7 Green Detection Reagent. The number of target cells was normalized to SKOV-3 cells cultured alone, and targets undergoing apoptosis were quantified based on caspase 3/7 activity.
The ability of GSK3 inhibition to enhance cytotoxicity of NK cells isolated directly from donors was assessed using in vitro killing assays. […] depleted PBMC population was treated overnight with 10 ng/mL IL-15 only (primed), or a 7 day culture combination of 10 ng/mL IL-15 and 5 μM CHIR99021. The target cells for the killing assays included K562 cells, CD20+ Raji cells, HER2+ SKOV3 cells and HER2+A549 cells. The E:T (Effector:Target) ratio applied to each assay ranged from 0.1, 0.5, 1, 5 to 10. After the target cells were incubated with the differently treated NK cells for 4 hours, the respective percentage of specific killing (target cell lysis) was calculated. […] Raji cells are less prone to NK mediated cytotoxicity.
The ability of STING agonist to enhance cytotoxicity of GSK3i multiday modulated NK cells was assessed using in vitro killing assays. […]

NK cells [1] = assay: Feeder-free culture of CD3/CD19 depleted PBMC with IL-15 and GSK3 inhibitor: NK cell expansion and phenotype; type: cell-based, human
Method: NK Cell Isolation. Healthy adult donor blood was obtained from commercial sources or from GCRC core laboratory of Scripps Research Institute, La Jolla, CA Peripheral blood mononuclear cells (PBMC) were isolated by density gradient centrifugation using Ficoll-Paque PLUS (GE Healthcare: Life Sciences) and then depleted of B and T cells without culturing the PBMC using CD19 Microbeads (Miltenyi Biotec, #130-050-301) and CD3 Microbeads (Miltenyi Biotec, #130-050-101) within 24 to 36 hours according to manufacturer directions.
NK cell culture: CD3/CD19 depleted PBMC (0.5-1×10E6/mL) were cultured in BO medium (2:1 mixture of DMEM, (Corning Cell-Gro #10-017-CV) and Ham's F12 (Corning Cell-Gro #10-080-C) with 10% human AB serum (Valley Biomedical, #HP1022), 100 U/mL penicillin and 100 ug/mL streptomycin (Corning, 30-002-CI), 20 uM 2-mercaptoethanol (Sigma, M3148), 50 uM ethanolamine (Sigma, E0135), 10 ug/mL ascorbic acid (Sigma, A4544), and 1.6 ng/mL sodium selenite (Sigma, S5261). Cells were cultured for 7-8 days (up to four weeks) in medium containing 10 ng/mL recombinant human IL-15 (Life Technologies, PHC9154) with or without GSK3 inhibitor CHIR99021 (BioVision #1677-5), histone lysine methyltransferase inhibitor BIX 01294 (Tocris, 3364), TGF-β1 receptor inhibitor SB-431542 (BioVison, 1674-5), or human interferon alpha (R&D Systems, 11200-1). After culturing, cells were counted using trypan blue or by Cellometer (Nexcelom) and used for flow cytometry and functional assays. Flow cytometry was performed on a BD LSRFortessa and results were analyzed by FlowJo software. Commercially available antibodies to the following surface markers were used for flow cytometry: CD3, CD14, CD16, CD19, CD56, CD57 and NKG2C (BD Biosciences, Biolegend, or R&D Systems). Where indicated, K562 feeder cells were used. Where indicated other modulators and culture reagents were added.
One aspect of the present invention is to provide a method and a system to culture, expand and/or modulate NK cells for adoptive cell therapy. In some embodiments, the method and system for culturing, expanding and/or modulating NK cells is without the use of feeder cells, or feeder cell conditioned medium. Peripheral blood mononuclear cells (PBMC) were isolated from healthy adult donors. The isolated apheresis product (Day 0, pre-depletion; FIG. 2A) was T and B cell depleted using anti-CD19 and CD3 antibodies without pre-depletion culturing (Day 0, post-depletion; FIG. 2B). The post-depletion cell population was then cultured in a feeder free condition with the presence of recombinant human IL-15 (10 ng/mL) and 5 μM CHIR99021, a GSK3 inhibitor, for about 3 to 7 days.

HER2+ SKOV3 cells = assay: NK cell killing and Herceptin ADCC of SKOV3 cells; type: cell-based, human
Method: as §1
In a similar fashion, SKOV3 cells were treated with NK cells derived from overnight culture with IL15, 7 day culture with IL15 and 7 day culture with IL15 and GSK3i. […]

NK cells [2] = assay: NK cell intracellular cytokine staining after IL-12+IL-18 or K562 stimulation; type: cell-based, human; details: 7 days 10 ng/ml IL-15 + 5 uM CHIR99021; 4-hour IL12+IL18 or K562 stimulation; vs primed or 7 day IL15 only
Method: NK Cell Intracellular Cytokine Staining: CD3/CD9 depleted PBMC were cultured for 7 days with 10 ng/ml IL-15 and 5 uM CHIR99021 or vehicle control. On culture day 7 cells were washed and cultured separately with IL-12 and IL-18 (long/ml and 50 ng/ml, respectively) (Life Technologies) or with K562 cells at a 1:1 ratio. Golgistop (BD Biosciences) was included in the culture media to facilitate intracellular detection of cytokines. After a 4 hour culture period, cells were stained for cell surface antigens and fixed prior to intracellular staining with antibodies to IFN-gamma and TNF-alpha (BD Biosciences). Staining was performed using the BD Cytofix/Cytoperm™ Kit according to the manufacturer's instructions.
Also analyzed was the effect of GSK3 inhibitor treatment to NK cell cytokine response. PBMC obtained directly from donors were cultured after CD3/CD9 depletion for 7 days with 10 ng/ml IL-15 and 5 uM CHIR99021, or with IL15 only. On day 7, cells were washed and cultured separately with IL-12 (long/ml) and IL-18 (50 ng/ml), or with K562 cells at a 1:1 ratio for stimulation. After a 4-hour culture period, cells were stained for cell surface antigens and fixed prior to intracellular staining with antibodies to IFNγ and TNFα, respectively.

[3] = 7 day culture with GSK3 inhibitor vs cultured without GSK3i
[4] = Day 7 GSK3i culture vs overnight primed

Cc1c[nH]c(-c2cnc(NCCNc3ccc(C#N)cn3)nc2-c2ccc(Cl)cc2Cl)n1 [CHIR99021] was tested, and the “E:T50 (E:T ratio when there is 50% of target cell lysis), K562 killing assay” value (K562 cells) was “about 1”, the “percentage of CD57+ cells in the total NK populations” value (NK cells [1]; 7 day culture with GSK3i vs 7 day without GSK3i) was “increased” and the “CD57+ NK cell number, increase on average” value (NK cells [1]; [3]) was 7-8 fold. The “CD57+NKG2C+ NK cell number, increase on average” value (NK cells [1]; [3]) was 7-8 fold, the “NK cell (CD56+CD3−) percentage in population” value (NK cells [1]; Day 7, IL-15 10 ng/mL + 5 μM CHIR99021, feeder free, about 20% post-depletion Day 0) was “about 99%” and the “remaining T cells (CD56-CD3+) percentage in population” value (NK cells [1]; Day 7, IL-15 10 ng/mL + 5 μM CHIR99021, about 1% post-depletion) was 0.25%. For the same compound, the “cell number of CD57+ NK subset, increase on average” value (NK cells [1]; [4]) was 5-6 fold, the “cell number of CD57+NKG2C+ NK subset, increase on average” value (NK cells [1]; [4]) was 5-6 fold and the “frequency of CD57+ cells in the culture” value (NK cells [1]; short term treatment, 16 hours, comparable to vehicle) was “did not generate a higher frequency”. The “killing of SKOV3 cells (killing rate and killing efficiency; elimination, caspase 3/7 peak)” value (HER2+ SKOV3 cells; 7 day IL15 + GSK3i vs overnight IL15 and 7 day IL15) was “most effective”, the “ADCC killing of SKOV3 with HER2 antibody (Herceptin)” value (HER2+ SKOV3 cells; NK cells 7 days IL15 + GSK3i vs overnight IL15 and 7 day IL15) was “enhanced” and the “IFNγ production in NK cells” value (NK cells [2]) was “enhanced”. The “TNFα production in NK cells” value (NK cells [2]) was “enhanced”.
